From patent US20120010229A1, “THERAPEUTIC REGIMENS FOR HEDGEHOG-ASSOCIATED CANCERS” (priority 2010, published 2012)

Experiments:
wild type human SMO = biological target: T1, wild type human SMO (Homo sapiens, UniProt Q99835); assay: Gli-luciferase reporter assay, C3H10T1/2 cells transfected with wild type SMO; format: cell-based, mouse
T1 construct: host or cells: C3H10T1/2 cells (ATCC CCL-226), mouse
Experimental: Wild type human SMO was subcloned into pcDNA3.1 from an expression construct in pCMV6 (Origene #SC122724). D473H SMO was then generated by site-directed mutagenesis using the Stratagene QuikChange kit (Agilent #200519) and sequence verified.
Gli-Luciferase reporter assays were performed as described. (Yauch et al. (2009) Science 326: 572-574) Briefly, C3H10 T1/2 cells (ATCC, #CCL-226) were plated in six-well plates at 1×10 to 5th cells per well in BME (Gibco #21010) with 10% FBS (Hyclone #SH30070.03), 2 mM Glutamine (Gibco #25030) and 50 units penicillin/50 ug streptomycin (Gibco #15140). The next morning, cells were transfected with 400 ng SMO expression construct, 400 ng 8× Gli-Luc, and 200 ng pRL-TK per well with GeneJuice transfection reagent (Novagen #70967). Cells in each well were lifted six hours later and replated into four wells of a 12 well plate and allowed to attach overnight. Medium was then changed to low (0.5%) serum and compounds were added in quadruplicate in a range of concentrations. After a 48 hour incubation, firefly and renilla luciferase were assayed using the Promega Dual-Glo Luciferase Assay System (Promega #E2940) and ratios were used to determine percent of control using Prism graphing software.

H1650 xenograft = assay: H1650 mutant EGFR non-small cell lung cancer xenograft, post Gefitinib; format: in vivo
Experimental: The efficacy of IPI-926 was evaluated when applied as a maintenance therapy following treatment of a xenograft non-small cell lung cancer model with a tyrosine kinase inhibitor. […] Sonic hedgehog ligand is detected by immunohistochemical staining (IHC) of sections of non-small cell lung cancer (FIG. 8A).

[1] = test system: L3.6pl P-lucky liver metastasis; assay: L3.6pl liver metastasis model, Study #1; format: in vivo; settings: for H&E staining of liver, tumor cells or metastasis: day 21
Experimental: Cells: L3.6pl is a pancreatic cancer cell line that has been tagged with the bioluminescence marker, luciferase, and is known to form metastasis in the liver (pl—pancreas to liver). Cells were cultured in RPMI+10% FBS and harvested on the day of implant. A single cell suspension was prepared in PBS at a concentration of 10 million cells per 1 ml of PBS. These cells were kept at 4° C. until implantation.
Model Procedure: Animals were anesthetized and prepared for surgery. The animal's spleen was exposed and 100 μl (1 million cells) of the L3.6pl single cell suspension was injected directly in the spleen towards the splenic vein (intra splenic injection). Once the injection was complete, the splenic artery and splenic vein were ligated, the spleen was excised, and the animals' wounds were closed. Post-op care and analgesia was given for 4 consecutive days and animals were monitored for recovery.
Prior to the procedure listed above 40 animals were separated into 4 groups consisting of 10 animals each.
Animals in group 2 (Pre-Treatment), received IPI-926 every-other-day for 14 days, prior to the intra splenic injection procedure, continuing until the study end.
Animals in group 3 (Day-of-Treatment), received IPI-926 every-other-day beginning on the day of the intra splenic injection procedure, continuing until the study end.
Animals in group 4 (Post-Treatment), received IPI-926 every-other-day beginning 7 days after the intra splenic injection procedure, continuing until the study end.
Results Procedure: Animals were injected with 10 ml/kg of luciferin concentrated at […] via I.P. injection. This luciferin binds to the L3.6pl P-Lucky cells injected on day 0. Utilizing Calipers Xenogen© machine, this cell-luciferin association emits bioluminescence that can be read and quantified (total flux).
Results: The graphs in FIGS. 10A-10B represent the quantification, normalized on each day to the average of vehicle treated animals. This normalization was done using the formula: (1/(average flux of vehicle animals/average flux of group X (group being compared))).

[2] = mouse, in vivo
Experimental: IPI-926 drug levels in tumor and brain samples were determined as described previously (Olive et al., (2009) Science 324: 1457-1461). Briefly, samples were homogenized in 4 volumes of CAN:PBS buffer and homogenized using a Geno/Grinder from SPEX CertiPrep (Metuchen, N.J.) for 2 minutes. Homogenates were then filtered using […] low binding hydrophilic multiscreen solvinert late (Millipore) and collected in a 96-well plate. The tissue filtrates were diluted 1:1 and IPI-926 levels were determined. Sample analysis was performed on an Agilent 1200 from Agilent Technologies (Santa Clara, Calif.) coupled with an API-4000 mass spectrometer from Applied Biosystems (Foster City, Calif.) for detection. Data were acquired and processed using the software Analyst 1.4.1 (Applied Biosystems). Sample concentrations, as measured by their peak area ratios (analyte divided by internal standard), were determined from the calibration curves.

Phase 1 clinical trial = format: in vivo
Pgp/ABCB1 and BCRP = settings: mouse, not told
L3.6pl xenografts = settings: with paclitaxel bonded to albumin (Abraxane)
[3] = test system: human cell lines derived from patients with cancer; settings: pancreatic cancer, medulloblastoma, lung cancer, multiple myeloma, leukemia, lymphoma lines; cited from earlier work

T1 sequence (Q99835 28-787): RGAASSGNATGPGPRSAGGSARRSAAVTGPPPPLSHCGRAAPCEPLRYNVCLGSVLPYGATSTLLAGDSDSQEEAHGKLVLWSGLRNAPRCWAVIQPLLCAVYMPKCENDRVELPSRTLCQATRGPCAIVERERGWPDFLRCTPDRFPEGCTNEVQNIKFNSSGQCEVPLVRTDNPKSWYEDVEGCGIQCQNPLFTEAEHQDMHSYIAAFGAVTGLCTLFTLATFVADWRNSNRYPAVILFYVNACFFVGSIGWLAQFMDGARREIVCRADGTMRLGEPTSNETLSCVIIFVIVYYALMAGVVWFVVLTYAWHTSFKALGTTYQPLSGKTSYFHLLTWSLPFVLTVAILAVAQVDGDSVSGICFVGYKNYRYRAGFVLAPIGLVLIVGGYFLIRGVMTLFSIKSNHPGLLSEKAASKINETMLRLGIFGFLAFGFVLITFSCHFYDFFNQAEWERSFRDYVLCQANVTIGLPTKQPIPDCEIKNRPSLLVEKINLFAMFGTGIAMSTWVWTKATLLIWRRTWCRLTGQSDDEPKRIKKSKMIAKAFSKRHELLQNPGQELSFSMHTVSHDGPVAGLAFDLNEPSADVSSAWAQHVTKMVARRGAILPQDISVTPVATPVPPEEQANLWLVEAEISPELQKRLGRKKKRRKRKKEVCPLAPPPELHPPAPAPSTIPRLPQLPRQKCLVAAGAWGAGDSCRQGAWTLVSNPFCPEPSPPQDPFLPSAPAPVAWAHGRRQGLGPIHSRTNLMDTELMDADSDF

Structure (SMILES): CC1=C2C[C@H]3[C@@H](CC[C@@H]4C[C@H](NS(C)(=O)=O)CC[C@@]43C)[C@@H]2CC[C@@]2(C1)O[C@@H]1C[C@H](C)CN[C@H]1[C@H]2C [IPI-926]
- IC50 (wild type human SMO): 9 nM
- tumor volume after cessation of Gefitinib (H1650 xenograft; Gefitinib 40 mg/kg orally one week followed by IPI-926 once a day for three weeks): prolonged duration of the tumor inhibition
- mGLI-1 mRNA expression in lung tumor samples (H1650 xenograft; IPI-926 in combination with Gefitinib): inhibit mGLI-1 mRNA expression
- reduction in flux (bioluminescence) below vehicle ([1]; IPI-926 every-other-day from 14 days prior to implant): 20-25 fold
- take or growth of metastasis within the liver ([1]; day of implant treatment (Day 0)): no detectable effect
- H&E staining of liver, tumor cells or metastasis ([1]; day of treated group): visible metastasis and tumors cells present
- survival rate vs vehicle ([1]; day of treatment group): survival rates similar to vehicle treated animals
- take or growth of metastasis within the liver ([1]; post implant treatment (Day 7)): no detectable effect
- H&E staining of liver, tumor cells or metastasis ([1]; post treated group): visible metastasis and tumors cells present
- survival rate vs vehicle ([1]; post treatment group): survival rates similar to vehicle treated animals
- H&E staining of liver, tumor cells or metastasis ([1]; pre-treatment animal): no detectable tumor cells or metastasis
- overall survival rate vs vehicle ([1]; treatment from 14 days prior to implant): doubles the overall survival rate
- blood brain barrier penetration [2]: crossed the blood brain barrier
- clinical activity (Phase 1 clinical trial): demonstrated clinical activity
- tolerability (Phase 1 clinical trial): well-tolerated
- Pgp protein expression (IHC) (Pgp/ABCB1 and BCRP): focal increases in Pgp
- expression level of BCRP (Western blot) (Pgp/ABCB1 and BCRP): not significantly increased
- expression level of Pgp (Western blot) (Pgp/ABCB1 and BCRP): not significantly increased
- effect on therapeutic agent effect of Abraxane (L3.6pl xenografts): enhances the therapeutic agent effect
- in vitro growth of human cancer cell lines [3]: inhibit in vitro growth
